Laboratory results taken from paper PMC11277476, “Synthesis and Biological Evaluation of Novel 2-Aroyl Benzofuran-Based Hydroxamic Acids as Antimicrotubule Agents” (International Journal of Molecular Sciences, 2024).

Assays:
[1] = test system: MDA-MB-231 cells; test: In vitro growth inhibition (resazurin, 72 h), MDA-MB-231; assay type: cell-based; conditions: Homo sapiens, mean ± SE
[2] = test system: tubulin (colchicine site); test: Inhibition of [3H]colchicine binding to tubulin; parameters: species or system bovine; conditions: tubulin 0.5 µM, [3H]colchicine 5 µM, tested compound 5 µM
Experimental: (§1) Bovine brain tubulin was purified as described previously. To evaluate the effects of the compounds on tubulin assembly in vitro [77], varying concentrations were preincubated with 10 μM tubulin in 0.8 M monosodium glutamate (pH 6.6) at 30 °C, and the reaction mixtures were then cooled to 0 °C. After addition of GTP, the mixtures were transferred to 0 °C cuvettes in Beckman Coulter (Brea, CA, USA) DU-7400/DU-7500 recording spectrophotometers equipped with electronic temperature controllers and were warmed to 30 °C, and the assembly of tubulin was observed turbidimetrically. […] Inhibition of colchicine binding to tubulin was measured as described before, except that the reaction mixtures contained 0.5 μM tubulin and 5 μM each of [^3H]colchicine and test compound. Only one DEAE-cellulose filter was used per sample, and filtration was via gravity.

[3] = test system: HT-29 cells; test: Cell cycle analysis (PI, flow cytometry); assay type: cell-based, human; conditions: 250 nM for 24 h (figure legend)
Experimental: HT29 cells were treated with the indicated compounds for 24 h and then harvested and fixed in 70% ice-cold ethanol for 24 h. The cells were next treated with a 0.1% v/v solution of Triton X-100 in phosphate buffered saline (PBS) containing 10 μg/mL RNAse A and 20 μg/mL PI. The cells were incubated at room temperature for 30 min and then analyzed on a BD FACS Celesta^TM Flow Cytometer (BD Bioscience, Franklin Lakes, NJ, USA) in the FL3 channel. DNA histograms were analyzed using FlowJo_v10.7.1 software (BD Bioscience, Franklin Lakes, NJ, USA).

[4] = test system: HeLa cells; test: In vitro growth inhibition (resazurin, 72 h), HeLa; assay type: cell-based; conditions: Homo sapiens, concentration inhibiting tumor cell proliferation by 50%, mean ± SE
[5] = test system: HeLa cells; test: Annexin V-PI flow cytometric analysis of apoptosis, HeLa; assay type: cell-based, human; conditions: 48 h, lower dose tested 25 nM
Experimental: (§2) The quantification of apoptosis induced by the test compounds was carried out with flow cytometric analysis using the Annexin-V Fluos kit (Roche Diagnostics, Milan, Italy) following the manufacturer’s instructions. Cancer cells treated with the test compounds for the indicated time points and concentrations were then labeled with annexin V/FITC and PI and analyzed with BD FACS Celesta^TM Flow Cytometer (BD Bioscience, Franklin Lakes, NJ, USA) using the FL1 and FL3 channel, respectively, and FlowJo_v10.7.1 software.

[6] = test system: HT-29 cells; test: Annexin V-PI flow cytometric analysis of apoptosis, HT-29; assay type: cell-based, human; conditions: 96 h
Experimental: as §2

[7] = test system: bovine brain tubulin; test: Inhibition of tubulin polymerization (turbidimetric); assay type: biochemical; conditions: tubulin at 10 μM; 20 min incubation at 30 °C; read-out: Tubulin Assembly IC50 ± SD
Experimental: as §1

[8] = test system: HT-29 cells; test: In vitro growth inhibition (resazurin, 72 h), HT-29; assay type: cell-based; conditions: Homo sapiens, mean ± SE
[9] = test system: A549 cells; test: In vitro growth inhibition (resazurin, 72 h), A549; assay type: cell-based; conditions: Homo sapiens, mean ± SE
[10] = test system: MCF-7 cells; test: In vitro growth inhibition (resazurin, 72 h), MCF-7; assay type: cell-based; conditions: Homo sapiens, MCF7, mean ± SE
[11] = test system: acetylated histone H3 (Ac-H3K9) in HT-29 cells; test: Western blot of acetylated histone H3 (Ac-H3K9) in HT-29 cells; assay type: cell-based, human; conditions: 10 µM, 6 h
Experimental: HT-29 cells were treated with selected compounds for 6 h at 10 µM, lysed, and then processed as previously described.
Antibodies directed against total histone H3 and its acetylated form (Ac-H3K9) were purchased from Cell Signaling Technology, Danvers, Massachusetts, while anti-vinculin antibody was purchased from Santa Cruz Biotechnology. Membranes were visualized using ECL select (GE Healthcare), and images were acquired using the iBright FL1500 Imaging System (Thermo Fisher Scientific, Waltham, MA, USA). Anti-vinculin (1:25,000, Santa Cruz Biotechnology, Dallas, TX, USA) was used as loading controls.

[12] = test system: human peripheral blood mononuclear cells (PBMC) stimulated with PHA; test: Cytotoxicity in PHA-stimulated PBMC (resazurin, 72 h); assay type: cell-based; conditions: mean ± SEM
From the text: (§3) Peripheral blood mononuclear cells (PBMC), obtained from human peripheral blood (leucocyte-rich plasma-buffy coats) of healthy volunteers using a Lymphoprep^TM (Serumwerk Bernburg AG) gradient, were used for the evaluation of the cytotoxic potential of compounds in normal human cells.
(§4) After extensive washing with saline solution (Hank’s Buffer Saline Solution, BioConcept, Allschwil, Switzerland), quiescent PBMCs were resuspended (1.0 × 10^6 cells/mL) in RPMI-1640 medium supplemented with 10% FBS. To evaluate cytotoxicity in proliferating PBMCs cultures, cells were resuspended at a concentration of 5 × 10^5 cells/mL in a growth medium containing […] of PHA (Irvine Scientific, Santa Ana, CA, USA). The same cellular density was utilized for resting PBMC cultures, without the addition of PHA. The tested compounds were added at different concentrations, and after a 72 h incubation, cell viability was determined using the resazurin test as described above.

[13] = biological target: T1, human recombinant HDAC6 (Homo sapiens, UniProt Q9UBN7); test: HDAC isoform inhibition, fluorogenic substrate, HDAC6; assay type: biochemical; conditions: mean ± SE, read-out: IC50 (µM) hHDAC6
T1 construct: purchased BPS Bioscience 50056
T1 sequence (Q9UBN7 1-1215): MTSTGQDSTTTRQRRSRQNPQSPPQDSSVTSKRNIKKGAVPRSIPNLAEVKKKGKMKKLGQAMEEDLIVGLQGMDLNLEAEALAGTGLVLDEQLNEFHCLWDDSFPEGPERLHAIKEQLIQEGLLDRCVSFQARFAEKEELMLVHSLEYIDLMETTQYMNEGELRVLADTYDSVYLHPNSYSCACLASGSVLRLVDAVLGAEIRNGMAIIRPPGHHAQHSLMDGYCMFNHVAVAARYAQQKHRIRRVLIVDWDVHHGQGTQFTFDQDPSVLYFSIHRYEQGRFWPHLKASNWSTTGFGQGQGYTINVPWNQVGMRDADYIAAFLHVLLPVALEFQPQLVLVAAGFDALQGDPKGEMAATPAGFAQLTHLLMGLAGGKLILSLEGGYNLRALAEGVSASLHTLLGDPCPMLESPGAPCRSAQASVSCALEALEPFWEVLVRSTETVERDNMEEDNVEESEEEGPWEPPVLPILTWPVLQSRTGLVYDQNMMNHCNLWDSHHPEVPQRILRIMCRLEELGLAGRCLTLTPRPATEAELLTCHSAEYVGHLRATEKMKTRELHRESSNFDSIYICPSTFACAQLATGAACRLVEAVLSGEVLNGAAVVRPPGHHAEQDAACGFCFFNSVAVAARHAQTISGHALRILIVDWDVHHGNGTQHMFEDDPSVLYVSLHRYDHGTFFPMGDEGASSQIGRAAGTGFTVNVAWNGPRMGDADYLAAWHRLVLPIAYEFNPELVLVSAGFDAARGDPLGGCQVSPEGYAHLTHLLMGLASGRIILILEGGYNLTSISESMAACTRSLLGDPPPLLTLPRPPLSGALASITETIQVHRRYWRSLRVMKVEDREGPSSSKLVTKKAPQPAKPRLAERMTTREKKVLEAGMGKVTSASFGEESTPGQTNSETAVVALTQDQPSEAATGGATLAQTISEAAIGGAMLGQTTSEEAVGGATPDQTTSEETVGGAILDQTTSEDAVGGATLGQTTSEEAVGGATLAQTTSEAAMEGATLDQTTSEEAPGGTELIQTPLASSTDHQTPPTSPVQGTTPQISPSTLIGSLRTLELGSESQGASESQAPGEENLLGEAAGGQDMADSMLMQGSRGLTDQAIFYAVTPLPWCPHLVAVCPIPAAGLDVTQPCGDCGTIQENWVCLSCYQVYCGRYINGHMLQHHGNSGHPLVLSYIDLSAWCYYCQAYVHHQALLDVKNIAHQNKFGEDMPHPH
Experimental: Further experiments were also carried out to evaluate the inhibitory activities of test compounds on selected HDAC isoforms. […] Following an incubation of 15 min at RT, fluorescence was measured in an EnSight multimodal plate reader (PerkinElmer, Boston, MA, USA) with an excitation wavelength of 360 nm and an emission wavelength of 450 nm.

[14] = test system: human peripheral blood mononuclear cells (PBMC), not stimulated with PHA; test: Cytotoxicity in resting PBMC (resazurin, 72 h); assay type: cell-based; conditions: mean ± SEM
From the text: as §3, §4

Row | SMILES | IC50 [1] | Colchicine Binding % Inhibition ± SD [2] | Percentage of HT-29 cells in G1 phase [3] | Percentage of HT-29 cells in G2/M phase [3] | Percentage of HT-29 cells in S phase [3] | IC50 [4] | cytotoxic effect (annexin V/PI), in words [5] | induction of apoptosis / cell death (annexin V/PI), in words [6] | IC50 [7] | IC50 [8] | IC50 [9] | IC50 [10] | acetylated histone H3 (Ac-H3K9) level, Western blot [11] | GI50 [12] | IC50 [13] | GI50 [14]
1 | COc1ccc(/C=C\c2cc(OC)c(OC)c(OC)c2)cc1O [CA-4, combretastatin A-4, reference compound] | […] | 98 ± 2% | 41.83% | 27.38% | 30.79% | 4.6 ± 0.1 nM | greatest cytotoxic effects at the lower dose tested | completely resistant | […] | – | – | – | – | – | – | –
2 | COc1cc2oc(C(=O)c3ccccc3OC)c(C)c2cc1/C=C/C(=O)NO [Compound 6f, (E)-N-Hydroxy-3-(6-methoxy-2-(2-methoxybenzoyl)-3-methylbenzofuran-5-yl)acrylamide] | 41.9 ± 2.33 nM | 76 ± 2% | 6.12% | 87.54% | 6.34% | 3.9 ± 0.01 nM | – | able to induce cell apoptosis | 1.2 ± 0.1 µM | 75.3 ± 3.09 nM | 168 ± 5.31 nM | 24 ± 8 nM | significantly increased acetylated histone H3 (Ac-H3K9) | 0.51 ± 0.1 µM | 6.12 ± 0.41 µM | > 10 µM
3 | COc1cc2oc(C(=O)c3ccccc3)c(C)c2cc1/C=C/C(=O)NO [Compound 6g, (E)-3-(2-Benzoyl-6-methoxy-3-methylbenzofuran-5-yl)-N-hydroxyacrylamide] | 23.9 ± 0.77 nM | 86 ± 5% | 34.91% | 40.74% | 24.35% | 0.36 ± 0.01 nM | greatest cytotoxic effects at the lower dose tested | able to induce cell apoptosis | 0.69 ± 0.1 µM | 80.3 ± 1.31 nM | 36.7 ± 0.91 nM | 30 ± 0.7 nM | – | 0.15 ± 0.02 µM | 10.2 ± 0.7 µM | > 10 µM
4 | COc1cc2oc(C(=O)c3cc(OC)c(OC)c(OC)c3)cc2cc1/C=C/C(=O)NO [Compound 6i, (E)-N-Hydroxy-3-(6-methoxy-2-(3,4,5-trimethoxybenzoyl)benzofuran-5-yl)acrylamide] | 93.7 ± 2.04 nM | 43 ± 4% | 4.13% | 91.07% | 4.79% | 14.8 ± 0.32 nM | – | able to induce cell apoptosis | 1.6 ± 0.3 µM | 272 ± 2.03 nM | 304 ± 1.46 nM | 69 ± 6 nM | significantly increased acetylated histone H3 (Ac-H3K9) | 2.32 ± 0.23 µM | 5.16 ± 0.34 µM | > 10 µM
